Reference: article PMC4501720 (PLoS ONE, 2015)

Tests used:
[1] = tested on: whole blood cells of group 3 pigs vaccinated with BCG-pAg85A; assay type: cell-based, pigs (Sus scrofa domestica)
[2] = tested on: whole blood cells of group 3 pigs vaccinated with BCG-pAg85A; assay type: cell-based, pigs (Sus scrofa domestica); remark: listed apart in the source

Substance | IFN-γ levels, BCG / pAg85A animal number 1 [1] | IFN-γ levels, BCG / pAg85A animal number 2 [1] | IFN-γ levels, BCG / pAg85A animal number 3 [1] | IFN-γ levels, BCG / pAg85A animal number 4 [1] [pg/mL] | IFN-γ levels, BCG / pAg85A animal number 5 [1] | IFN-γ levels, BCG / pAg85A animal number 6 [1] | group 3 animals recognizing the peptide (significant IFN-γ levels) [1] | animals with positive proliferative response to peptide [2]
131–150: synthetic overlapping peptide of mature Ag85A, aa 131–150 (SALTLAIYHPQQFVYAGAMS; UniProt P9WQP3 174-193, looked up, fragment) | 11,114 pg/mL | 1,754 pg/mL | 5,306 pg/mL | 868 | 11,072 pg/mL | 4,687 pg/mL | 6/6 and all six | 5/6
151–170: synthetic overlapping peptide of mature Ag85A, aa 151–170 (GLLDPSQAMGPTLIGLAMGD; UniProt P9WQP3 194-213, looked up, fragment) | 1,020 pg/mL | <5 pg/mL | 257 pg/mL | 71 | 349 pg/mL | <5 pg/mL |  | 
71–90: synthetic overlapping peptide of mature Ag85A, aa 71–90 (PVGGQSSFYSDWYQPACGKA; UniProt P9WQP3 114-133, looked up, fragment) | 217 pg/mL | <5 pg/mL | <5 pg/mL | <5 | 289 pg/mL | <5 pg/mL |  | 
91–108: 18-mer peptide spanning the sequence of Ag85B aa 91–108, used instead of Ag85A 91–110 (GCQTYKWETFLTSELPQW; UniProt P9WQP1 131-148, looked up, fragment) | <5 pg/mL | 2,332 pg/mL | 2,377 pg/mL | 308 | 748 pg/mL | <5 pg/mL |  | 
61–80: synthetic overlapping peptide of mature Ag85A, aa 61–80 (YDQSGLSVVMPVGGQSSFYS; UniProt P9WQP3 104-123, looked up, fragment) | 8,179 pg/mL | 354 pg/mL | 579 pg/mL | 75 | 3,611 pg/mL | 444 pg/mL |  | 
201–220: synthetic overlapping peptide of mature Ag85A, aa 201–220 (IANNTRVWVYCGNGKPSDLG; UniProt P9WQP3 244-263, looked up, fragment) | 21 pg/mL | <5 pg/mL | 1,315 pg/mL | <5 | <5 pg/mL | 197 pg/mL |  | 
21–40: synthetic overlapping peptide of mature Ag85A, aa 21–40 (DIKVQFQSGGANSPALYLLD; UniProt P9WQP3 64-83, looked up, fragment) | <5 pg/mL | 681 pg/mL | <5 pg/mL | 128 | 142 pg/mL | <5 pg/mL |  | 
35–53: synthetic overlapping peptide of mature Ag85A, aa 35–53 (ALYLLDGLRAQDDFSGWDI; UniProt P9WQP3 78-96, looked up, fragment) | 4,594 pg/mL | 438 pg/mL | 74 pg/mL | <5 | 2,105 pg/mL | <5 pg/mL |  | 
241–260: synthetic overlapping peptide of mature Ag85A, aa 241–260 (QDAYNAGGGHNGVFDFPDSG; UniProt P9WQP3 284-303, looked up, fragment) | 40 pg/mL | <5 pg/mL | <5 pg/mL | <5 | <5 pg/mL | 66 pg/mL |  | 
141–160: synthetic overlapping peptide of mature Ag85A, aa 141–160 (QQFVYAGAMSGLLDPSQAMG; UniProt P9WQP3 184-203, looked up, fragment) | 9,718 pg/mL | 232 pg/mL | 1,330 pg/mL | 894 | 3,006 pg/mL | 837 pg/mL |  | 
171–190: synthetic overlapping peptide of mature Ag85A, aa 171–190 (AGGYKASDMWGPKEDPAWQR; UniProt P9WQP3 214-233, looked up, fragment) | 328 pg/mL | <5 pg/mL | 1,066 pg/mL | 22 | 170 pg/mL | <5 pg/mL |  | 
275–294: synthetic overlapping peptide of mature Ag85A, aa 275–294 (KPDLQRALGATPNTGPAPQG; UniProt P9WQP3 318-337, looked up, fragment) | 57 pg/mL | <5 pg/mL | <5 pg/mL | <5 | 114 pg/mL | 77 pg/mL |  | 
101–120: synthetic overlapping peptide of mature Ag85A, aa 101–120 (LTSELPGWLQANRHVKPTGS; UniProt P9WQP3 144-163, looked up, fragment) | 150 pg/mL | 1,646 pg/mL | 1,177 pg/mL | <5 | 319 pg/mL | <5 pg/mL |  | 
211–230: synthetic overlapping peptide of mature Ag85A, aa 211–230 (CGNGKPSDLGGNNLPAKFLE; UniProt P9WQP3 254-273, looked up, fragment) | 46 pg/mL | <5 pg/mL | 13 pg/mL | <5 | <5 pg/mL | 218 pg/mL |  | 
121–140: synthetic overlapping peptide of mature Ag85A, aa 121–140 (AVVGLSMAASSALTLAIYHP; UniProt P9WQP3 164-183, looked up, fragment) | 16,699 pg/mL | 2,367 pg/mL | 306 pg/mL | <5 | 1,023 pg/mL | <5 pg/mL |  | 
